The text below walks through data of ChEMBL document CHEMBL1201862, “PubChem BioAssay data set” (2004).

Among the test systems are 786-0; BT-549; CAKI-1; CCRF-CEM; HCC 2998; HOP-62; HT-29; KM12; MDA-MB-231; NCI-H226; NCI-H23; NCI/ADR-RES; OVCAR-3; RXF 393; SF-268; SK-OV-3; SR; T47D; DU-145.
Assay in all cases: NCI anticancer screen, dose series, 48 h

Each structure is given as a SMILES string.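 Cultured in 96-well plates, cells were exposed to test compound for 48 hours across five concentrations. GI50 marks 50% less growth.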 Activity calls are given as the source filed them. Rule as the data show it: active = GI50 up to about 1.1 µM and inactive = higher. Where a SMILES comes first, the peptide text is derived from it. The star is where a group is joined. Boc = CC(C)(C)OC(=O)*; OSu = O=C1CCC(=O)N1O* A value given as a limit tells only on which side of the number the result lay.

As to `O=C1C2CCCCC2C(=O)N1n1c(-c2ccccc2)n[nH]c1=O` (stereo not drawn), the GI50 in the assay on 786-0, in the assay on BT-549, with CAKI-1, in the assay with CCRF-CEM, in the assay with HCC 2998 and in the assay with HOP-62 was > 100 µM (inactive) in each case. Besides, the GI50 in the assay with HT-29, in the assay with KM12, in the assay on MDA-MB-231, in the assay on NCI-H226, in the assay on NCI-H23 and in the assay on NCI/ADR-RES was > 100 µM (inactive) throughout. In addition, the GI50 with OVCAR-3, in the assay on RXF 393, with SF-268, in the assay on SK-OV-3, with SR and with T47D was > 100 µM (inactive) each time.

For `CC(C)CN1CN(c2ccccc2)C2(CCN(CC(C)(c3ccc(F)cc3)C3OCCO3)CC2)C1=O` (stereo not drawn), the GI50 in the assay with 786-0 was 3.12 µM (inactive); in the assay with BT-549 it was 6.56 µM (inactive); in the assay on CAKI-1, 12.1 µM (inactive); in the assay with CCRF-CEM, 3.55 µM (inactive); in the assay with DU-145, 4.1 µM (inactive); in the assay on HCC 2998 it was 2.39 µM (inactive). Besides, the GI50 in the assay on HOP-62 was 3.45 µM (inactive); in the assay on HT-29, 1.73 µM (inactive); with KM12, 3.72 µM (inactive); in the assay on NCI-H226 it was 11.1 µM (inactive); with NCI-H23, 2.09 µM (inactive); in the assay with NCI/ADR-RES it was 7.41 µM (inactive). The GI50 in the assay with OVCAR-3 is 10.3 µM (inactive); with RXF 393, 6.25 µM (inactive); with SF-268, 8.39 µM (inactive); in the assay on SK-OV-3 it was 3.89 µM (inactive); in the assay on SR it was 2.77 µM (inactive); in the assay on T47D it was 2.75 µM (inactive).

Take `Oc1cc(-c2cccc3ccccc23)nc2ncccc12`: the GI50 is 0.0321 µM (active) in the assay with 786-0; 0.938 µM (active) in the assay with BT-549; 0.0242 µM (active) in the assay with CAKI-1; 0.0245 µM (active) in the assay on CCRF-CEM; 0.0418 µM (active) in the assay on DU-145; 0.0745 µM (active) with HCC 2998. The GI50 is 0.962 µM (active) in the assay on HOP-62; 0.0173 µM (active) with HT-29; 0.0122 µM (active) in the assay with KM12; 0.172 µM (active) with MDA-MB-231; 0.0339 µM (active) in the assay with NCI-H226; 0.035 µM (active) in the assay on NCI-H23. The GI50 was 0.0206 µM (active) in the assay with NCI/ADR-RES; 0.00457 µM (active) with OVCAR-3; 0.015 µM (active) with RXF 393; 0.0201 µM (active) in the assay with SF-268; 0.0176 µM (active) with SK-OV-3; 0.00565 µM (active) in the assay with SR.

With `CCOC1NC(=O)Oc2ccccc21` (stereo not drawn), the GI50 in the assay with 786-0, in the assay with BT-549, in the assay with CAKI-1, with CCRF-CEM, in the assay on DU-145 and with HCC 2998 was > 100 µM (inactive) throughout. Besides, the GI50 with HOP-62, in the assay on HT-29, in the assay on KM12, with MDA-MB-231, in the assay on NCI-H226 and in the assay with NCI-H23 was > 100 µM (inactive) each time. Also, the GI50 in the assay on NCI/ADR-RES is > 100 µM (inactive); in the assay with OVCAR-3, 68.2 µM (inactive); with RXF 393, > 100 µM (inactive); in the assay on SF-268, > 100 µM (inactive); in the assay on SK-OV-3, > 100 µM (inactive); in the assay with SR, > 100 µM (inactive).

As for `c1ccc(NN=C(c2ccccn2)c2ccccn2)nc1`, the GI50 with 786-0 is 0.142 µM (active); in the assay with BT-549 it was 6.18 µM (inactive); in the assay with CAKI-1, 0.0757 µM (active); with CCRF-CEM it was 0.0224 µM (active); in the assay on DU-145, 0.331 µM (active); with HCC 2998, 2.23 µM (inactive). Moreover, the GI50 in the assay with HOP-62 was 0.346 µM (active); in the assay on HT-29, < 0.01 µM (active); with KM12, 0.552 µM (active); in the assay with MDA-MB-231, 0.389 µM (active); in the assay with NCI-H226, 0.285 µM (active); with NCI-H23, 0.0408 µM (active). Besides, the GI50 with NCI/ADR-RES is 0.157 µM (active); in the assay on OVCAR-3 it was < 0.0217 µM (active); in the assay with RXF 393, 0.583 µM (active); in the assay on SF-268 it was 0.388 µM (active); in the assay with SK-OV-3 it was 0.369 µM (active).

As to `CC(C)(C)OC(=O)NC(Cc1ccc(O)cc1)C(=O)NC(CCCCN)C(=O)NC(Cc1ccc(O)cc1)C(=O)NC(CCCCN)C(=O)ON1C(=O)CCC1=O` (stereo not drawn) (Boc-YKYK-OSu; configuration not given here), the GI50 is > 100 µM (inactive) with 786-0; > 100 µM (inactive) in the assay with BT-549; > 100 µM (inactive) in the assay with CCRF-CEM; > 100 µM (inactive) with HCC 2998; > 100 µM (inactive) in the assay with HOP-62; 89.3 µM (inactive) in the assay on HT-29. For the same compound, the GI50 with KM12, in the assay with MDA-MB-231, in the assay with NCI-H226, in the assay with NCI-H23, in the assay on RXF 393 and in the assay with SR was > 100 µM (inactive) throughout. Besides, the GI50 in the assay with T47D is > 100 µM (inactive).

Consider `C=C(Cl)C(C)(Cl)CCC(Cl)C(C)C` (stereo not drawn), for which the GI50 with 786-0 was > 100 µM (inactive); with BT-549, > 100 µM (inactive); in the assay with CAKI-1, > 100 µM (inactive); in the assay on CCRF-CEM, 38.7 µM (inactive); with DU-145, > 100 µM (inactive); in the assay on HCC 2998 it was > 100 µM (inactive). In addition, the GI50 in the assay with HOP-62 is > 100 µM (inactive); in the assay with HT-29 it was 66.8 µM (inactive); in the assay with KM12 it was > 100 µM (inactive); in the assay on MDA-MB-231, > 100 µM (inactive); in the assay with NCI-H226, > 100 µM (inactive); with NCI-H23, > 100 µM (inactive). Further, the GI50 is > 100 µM (inactive) in the assay with NCI/ADR-RES; > 100 µM (inactive) in the assay on OVCAR-3; > 100 µM (inactive) in the assay with RXF 393; > 100 µM (inactive) with SF-268; 29.6 µM (inactive) with SK-OV-3; 24.8 µM (inactive) with SR.

As to `Cc1c2c(C#N)nccc2c(C)c2c1c1ccccc1n2Cc1ccccc1`, the GI50 with 786-0, in the assay with CAKI-1, in the assay on CCRF-CEM, with DU-145, with HCC 2998 and with HOP-62 was > 100 µM (inactive) throughout. Further, the GI50 in the assay with HT-29, in the assay with KM12, with MDA-MB-231, with NCI-H226, in the assay on NCI-H23 and in the assay with NCI/ADR-RES was > 100 µM (inactive) each time. The GI50 was > 100 µM (inactive) in the assay with OVCAR-3; > 100 µM (inactive) in the assay on RXF 393; > 100 µM (inactive) in the assay with SF-268; > 100 µM (inactive) in the assay with SK-OV-3; 36.1 µM (inactive) with SR; 63.5 µM (inactive) in the assay on T47D.
